Measured values published in patent publication US9221786B2, “2-fluorophenyl propionic acid derivatives” (LTT BIO-PHARMA CO., LTD., priority 2011, dated 2015).

How the values were obtained:
COX-2 = target: T1, COX-2 (Homo sapiens, UniProt P35354); experiment: Human whole blood assay, in vitro COX-2 assay (LPS-stimulated, PGE2 by EIA); assay type: cell-based; details: for COX Selectivity COX-1/COX-2: ratio of IC50 COX-1 / IC50 COX-2, human whole blood; for selective inhibitory action on COX-2 activity: compared with loxoprofen (1), Table 12
T1 construct: incubated at 37° C. for 24 hours to induce COX-2; from tissue; host or cells: heparinised human whole blood from healthy donors, stimulated with LPS
T1 sequence (P35354 18-604): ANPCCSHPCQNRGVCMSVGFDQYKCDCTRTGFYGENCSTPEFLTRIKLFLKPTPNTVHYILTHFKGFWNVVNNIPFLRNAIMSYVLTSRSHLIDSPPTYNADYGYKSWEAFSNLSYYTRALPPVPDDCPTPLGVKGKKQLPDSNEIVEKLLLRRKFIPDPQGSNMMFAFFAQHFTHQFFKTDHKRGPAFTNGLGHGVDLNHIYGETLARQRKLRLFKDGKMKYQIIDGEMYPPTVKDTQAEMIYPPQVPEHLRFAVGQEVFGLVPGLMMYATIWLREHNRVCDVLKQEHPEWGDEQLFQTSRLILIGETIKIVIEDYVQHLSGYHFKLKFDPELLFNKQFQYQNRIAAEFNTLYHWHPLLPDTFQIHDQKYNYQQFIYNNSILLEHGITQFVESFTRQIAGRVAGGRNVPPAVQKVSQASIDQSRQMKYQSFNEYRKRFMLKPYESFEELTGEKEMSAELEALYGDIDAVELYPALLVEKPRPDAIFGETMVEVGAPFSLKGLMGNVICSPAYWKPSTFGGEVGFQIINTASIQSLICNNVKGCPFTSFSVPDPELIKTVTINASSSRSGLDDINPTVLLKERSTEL
Description: Human Whole Blood Assay (In Vitro)
This test was carried out according to the method described in Inflamm. Res., 45: 68-74 (1996).
As blood donors, persons who were healthy on the day of collecting and had not taken NSAIDs for at least a week or more were selected.
Blood was collected in test tubes treated with heparin (Venoject II blood collection tubes, produced by TERUMO CORPORATION). To the test tubes, inflammatory stimulant lipopolysaccharide (LPS) [Sigma-Aldrich Japan Inc., #L2880 from E. coli 055:B5; diluted with phosphate buffered saline (PBS) at a final concentration of 100 μg/mL] was added. Aliquots of 500 μL were dispensed in the tubes, and 2 μL of a solution of a test compound (final concentration: 0.1 μM to 1000 μM) in a suitable solvent (DMSO or MilliQ water) was added to the tubes and incubated at 37° C. for 24 hours to induce COX-2.
After the incubation, the sample was centrifuged at 12,000×g for 5 minutes to separate blood serum. To remove protein from blood, 100 μL of obtained blood serum was added to 400 μL of ethanol, and the mixture was centrifuged again at 12,000×g for 5 minutes. PGE2 in the supernatant was quantitatively determined using an enzyme immunoassay (EIA) kit [Cayman (Ann, Arbor, Mich., USA) #514040] according to the attached protocol.

[1] = compared with loxoprofen; earlier work, Patent Literature 1; cited from earlier work
[2] = earlier work of the inventors, Patent Literature 1; cited from earlier work
Male Wister rats [3] = experiment: Effect on carrageenin-induced edema; assay type: in vivo, rat; details: oral, 1 hour before carrageenin, 3 and 6 hours, FIG. 2
Description: B: Effect on Carrageenin-Induced Edema
This test was carried out according to the method described in Br. J. Pharmacol., 151; 285-91 (2007).
Male Wister rats (weight: 180 to 200 g) were fasted for 18 hours, and a test compound was orally administered to the rats. After 1 hour, 100 μL of 1% carrageenin (dissolved in physiological saline) was subcutaneously injected into the left footpad to induce edema.
Before carrageenin administration, and three hours and six hours after carrageenin administration, the leg volume was measured using a plethysmometer.
The edema inhibition rate is calculated on the basis of the following equation. Inhibition rate(%)=100−(edema volume when a compound was administrated/edema volume when a vehicle was administrated)×100.

Male Wister rats [4] = experiment: Gastric ulceration after oral administration (lesion index); assay type: in vivo, rat; details: rats fasted 18 hours, stomach excised after 8 hours, FIG. 1, versus loxoprofen (1)
Description: This test was carried out according to the method described in Biochem. Pharmacol., 67; 575-85 (2004).
Male Wister rats (weight: 180 to 200 g) were fasted for 18 hours, and a test compound was orally administered to the rats. After 8 hours, the stomach was excised and the area of ulcers found in the stomach was measured. The total area of all ulcers was represented as the lesion index.

Compound | COX Selectivity COX-1/COX-2 (COX-2) | anti-inflammatory effect [1] | ulceration action [2] | selective inhibitory action on COX-2 activity (COX-2) | anti-inflammatory effect (edema inhibition) (Male Wister rats [3]) | gastric ulceration / gastric damage (Male Wister rats [4])
CC(C(=O)O)c1ccc(CC2CCCC2=O)cc1F (stereo not drawn) [Compound 2, 2-fluoroloxoprofen] | 1.7 | same anti-inflammatory effect as loxoprofen | low ulceration action | – | – | –
CC(C(=O)O)c1ccc(NC2CCCC2)cc1F (stereo not drawn) [Compound 11a, 2-[4-(cyclopentylamino)-2-fluoro-phenyl]propionic acid] | 0.7 | – | – | weaker selective inhibitory action on COX-2 activity than loxoprofen (1) | excellent anti-inflammatory effect | gastric ulceration was significantly reduced
CC(C(=O)O)c1ccc(OC2CCCC2)cc1F (racemic) [Compound 14, 2-[4-(cyclopentyloxy)-2-fluorophenyl]-propionic acid] | 0.1 | – | – | weaker selective inhibitory action on COX-2 activity than loxoprofen (1) | excellent anti-inflammatory effect | gastric ulceration was significantly reduced
CC(C(=O)O)c1ccc(CC2CCCC2=O)cc1 (stereo not drawn) [Compound 1, Loxoprofen, reference compound] | 2.3 | – | – | – | – | –

The next lines start with results.

COX Selectivity COX-1/COX-2 (COX-2) | Compound | anti-inflammatory effect [1] | ulceration action [2] | selective inhibitory action on COX-2 activity (COX-2) | anti-inflammatory effect (edema inhibition) (Male Wister rats [3]) | gastric ulceration / gastric damage (Male Wister rats [4])
5.3 | CC(C(=O)O)c1ccc(Cc2ccco2)cc1F (stereo not drawn) [Compound 21a, 2-[2-fluoro-4-(furan-2-ylmethyl)-phenyl]propionic acid] | – | – | – | same level of anti-inflammatory effect as loxoprofen (1) | significantly reducing gastric damage
7.6 | CC(C(=O)O)c1ccc(Cc2ccoc2)cc1F (racemic) [Compound 22a, 2-[2-fluoro-4-(furan-3-ylmethyl)-phenyl]propionic acid] | – | – | – | same level of anti-inflammatory effect as loxoprofen (1) | significantly reducing gastric damage
